Patent publication US20080293038A1, “Method for Determining Resistance of Hiv to Nucleoside Reverse Transcriptase Inhibitor Treatment” (priority 2005, published 2008)
Read-outs that look alike come from different tables or passages of the source.

Tested on: HIV-1 isolates from patient plasma samples (recombinant virus with patient PR-RT segment)
Protocol: Phenotypic drug susceptibility is measured as the concentration of drug required to inhibit virus replication by 50% (IC50). As used herein, a “fold change” or “FC” is the ratio of a viral variant IC50 divided by the IC50 of a reference HIV.
The clinical cutoff has been identified as a 3.5-fold change (“FC”) for the PHENOSENSE™ phenotypic HIV assay for FTC.
A set of reverse transcriptase mutations for FTC was generated utilizing the HIPAA-compliant database of over 48,000 linked phenotype and genotype results for patient's samples maintained by ViroLogic, Inc. (South San Francisco, Calif.). Phenotypes and genotypes were determined in the ViroLogic clinical laboratory. […] In this subset excluding the wild-type samples, a total of 13,576 samples had IC50 fold change (FC) data available for FTC.
The drug susceptibility phenotypes of the HIV-1 isolates from patient plasma samples was determined by the PHENOSENSE™ phenotype HIV assay. This assay was performed by amplifying the PR-RT segment of the pol gene from patient plasma and inserting it into a genomic HIV-1 vector. The vector contained a luciferase reporter gene to monitor recombinant virus infection in cell culture. Results were expressed as the FC in the IC50 for the patient-derived virus compared to that for a reference control virus, NL4-3. Drug dilutions were arranged to maximize curve-fitting accuracy for the range of wildtype virus susceptibilities over clinically relevant ranges of increased and decreased susceptibilities. Microtiter plates were incubated in customized incubators in which the temperature, CO2 level, and humidity were controlled to minimize variation in cell growth and medium composition changes throughout the plate.
The five rules were tested separately and with the condition that none of the other rules were verified as true, except for rule 2. […] In this exercise, because of large number of samples in each category, mixtures (if present at accessory positions) were considered as mutant. In rule 2, because of the low number of samples with T69 insertion without NAMs, the condition was defined to select samples with T69 insertion and with no mutation Q151M, K65R, M184I, M184V or M184T.

Nc1nc(=O)n([C@@H]2CS[C@H](CO)O2)cc1F [FTC, emtricitabine]
samples classified as phenotypically resistant (dataset of 13,576 patient samples (wild-type excluded) with FTC FC data, 8,589 samples resistant): 63.2% | PR % (samples phenotypically resistant to FTC) (rule 1: samples with RT mutation Q151M only, PR = FC at or above clinical cutoff 3.5 vs NL4-3): 53.8% | PR % (samples phenotypically resistant to FTC) (rule 2: samples with T69 insertion (possible NAMs), no Q151M, K65R, M184I/V/T, cutoff FC 3.5): 89.4% | PR % (samples phenotypically resistant to FTC) (rule 3: samples with RT mutation K65R only, cutoff FC 3.5): 95.2% | PR % (samples phenotypically resistant to FTC) (rule 4: samples with M184I, V or T only, cutoff FC 3.5): 100% | PR % (samples phenotypically resistant to FTC) (rule 5: samples with 4 or more NAMs (M41L, E44A/D, D67N, K70R, V118I, L210W, T215F/Y, K219E/H/N/Q/R) only, cutoff FC 3.5): 87.1% | PR % (samples phenotypically resistant to FTC) (totals: all 2794 samples meeting only one of the five rules, cutoff FC 3.5): 94.9%
